Values quoted from earlier work as cited in US20090191608A1, “Pancreatic Islet Cell Preparation and Transplantation” (Baylor Research Institute, priority 2008, published 2009).

Columns and labels:
[1] = in vivo

Half-life [1]	Time to reach a new steady-state level after the change of dose [1] [weeks]	Compound	Occurrence of mouth ulcers (most common side effect)	Incidence of heparin-induced thrombocytopenia (in vivo) [%]
approximately 3 days	2	CO[C@H]1C[C@@H]2CC[C@@H](C)[C@@](O)(O2)C(=O)C(=O)N2CCCC[C@H]2C(=O)O[C@H]([C@H](C)C[C@@H]2CC[C@@H](O)[C@H](OC)C2)CC(=O)[C@H](C)/C=C(\C)[C@@H](O)[C@@H](OC)C(=O)[C@H](C)C[C@H](C)/C=C/C=C/C=C/1C [Sirolimus]	up to 85%	–
–	–	Enoxaparin [Lovenox]	–	0.2
